PMC6158189, “A pharmacological probe identifies cystathionine β-synthase as a new negative regulator for ferroptosis” (Cell Death & Disease, 2018)

Key:
H22 cells = assay: cell viability (CellTiter 96 Aqueous One); assay type: cell-based, mouse
Experimental: To measure cell viability and cytotoxicity, HepG2, HEK293T, Huh-7, H22, Panc-28, HCT116 and MDA-MB-231 cells were seeded at a density of ~ 2 × 10^4 cells per well in 96-well plates (Coring, NY, USA) for one day, followed by incubation with DMSO or various concentrations of tested compound for indicated times. Then, the cells were collected to measure the cell viability using the CellTiter 96® Aqueous One Solution Cell Proliferation Assay (Promega, G3581) according to the standard protocols.
Figure S11. The effects of CH004 on cell viability in various types of cancer cell lines. (A) Dose-dependent curves of CH004 on cell viability of HepG2 cells (▲), HEK293T cells (○). Percentages of cell viability of CH004 obtained in Figure 4a were fitted to the non-linear equation using GraphPad Prism 5 to get the IC50 values of CH004 in respective cell lines. Means ± SDs (n=3). […] (B) MDA-MB-231 (breast cancer cell cline), HCT116 (colon cancer), Panc-28 cells (pancreas cancer), Huh7 cells (hepatocellular carcinoma) and H22 (mouse liver cancer) were incubated with DMSO (control) or indicated concentrations of CH004 for 24 h in a 96-well plate before assessing cell viability using the CellTiter96® Aqueous One Solution Cell Proliferation Assay (Promega). The data are shown as percentages of control (DMSO, 100%). Means ± SDs (n=3). (C) The dose-dependent curve of CH004 on cell viability. […]

HepG2 cells = assay: colony formation (crystal violet); assay type: cell-based, human; settings: 24 h treatment
Description: Figure S12. CH004 inhibits the proliferation of cells via specifically targeting hCBS. (A-B) Dose-dependent curves of CH004 on the cell viability of CBS-stably-expressed HEK293T (A) or CBS-knockdown cells (B). Percentages of cell viability of CH004 obtained in Figure 4b were fitted to the non-linear equation using GraphPad Prism 5 to get the IC50 values of CH004 in respective cell lines (●, 293T-CBS WT cells; ○, 293T-EV; ▲, 293T-shCBS; △, 293T-shNT). Means ± SDs (n=3). […] HEK293T cells stably expressing of the lentiviral shRNA targeting CBS (shCBS) or control shRNA (shNT) were seeded at the density of ~ 3,000 cells per well in 96-well plates and the cell images in the bright field were acquired at indicated times by Image Xpress Micro® XLS (Molecular Devices, Sunnyvale, CA) under 10 × objective lens. Representative images of two independent experiments (n = 6 for each experiment) are shown in C. The cell numbers of images under 4 × objective lens of one representative experiment were calculated by Image Xpress Software and the data is shown in D. Means ± SDs (n=6). […] HepG2 cells were seeded in a 96-well plate at a density of 20000 cells per well and cultured for 24 h before treatment with indicated concentrations of CH004 for another 24 h. The colonies were stained with crystal violet and quantified by measuring the absorbance at 590 nm. […] Means ± SDs (n=3). […]

Structure (SMILES): Cn1nc(Cc2ccccc2)nc2c(=O)n(C)c(=O)nc1-2 [CH004, 3-benzyl-1,6-dimethylpyrimido[5,4-e][1,2,4]triazine-5,7(1H,6H)-dione]
- IC50 (H22 cells; 24 h): ~13 µM
- IC50 (H22 cells; Mus musculus, H22, 24 h): 12.9 ± 0.7 µM
- IC50 (HepG2 cells): ~8 µM
- IC50 (HepG2 cells; Homo sapiens, HepG2, 24 h): ~7.9 µM
